{
  "source": "patent EP2951180B1",
  "about": "“2,6,7,8 SUBSTITUTED PURINES AS HDM2 INHIBITORS” (Merck Sharp & Dohme Corp., priority 2013, dated 2014)",
  "data": [
    {"target": "T1, HDM2 (Homo sapiens, UniProt Q00987)", "T1 construct": "Thioredoxin (N); made in house; host or cells: E. coli strain BL21(DE3)Rosetta", "T1 sequence (Q00987 17-125)": "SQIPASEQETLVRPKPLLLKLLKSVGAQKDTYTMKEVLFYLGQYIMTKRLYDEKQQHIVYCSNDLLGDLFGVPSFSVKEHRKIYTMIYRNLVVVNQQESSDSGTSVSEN", "assay": "HDM2 FRET assay (inhibition of binding of FITC labeled p53-pocket peptide to HDM2)", "details": "Table 22; read-out: FRET IC50", "how_it_was_run": "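Compounds were tested in 10-point serial dilution against 0.5 nM recombinant HDM2 binding 3 nM fluorescein-labeled p53-pocket peptide. Detection used 0.25 nM terbium cryptate anti-6xHis antibody in PBS buffer containing 0.01% BSA and 0.01% Tween-20.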", "units": {"IC50": "nM"}, "values": [
      {"smiles": "C[C@@H](Nc1nc(-c2noc(=O)[nH]2)nc2nc(C3(c4cscn4)CC3)n(C[C@H]3CC[C@H](C)CC3)c12)C1CCC1", "note": "[Example 22.54, 3-(6-{[(1R)-1-cyclobutylethyl]amino}-7-[(trans-4-methylcyclohexyl)methyl] -8-[1-(1,3-thiazol-4-yl)cyclopropyl]-7H-purin-2-yl)-1,2,4-oxadiazol-5(4H)-one]", "IC50": 2.26},
      {"smiles": "C[C@@H](Nc1nc(-c2noc(=O)[nH]2)nc2nc(C(C)(O)c3ccn(C)n3)n(C[C@H]3CC[C@H](C)CC3)c12)C1CCC1", "note": "(stereo partly drawn) [Example 22.55, 3-(6-{[(1R)-1-cyclobutylethyl]amino}-8-[1-hydroxy-1-(1-methyl-1H-pyrazol-3-yl)ethyl]-7-[(trans-4-methylcyclohexyl)methyl] -7H-purin-2-yl)-1,2,4-oxadiazol-5(2H)-one]", "IC50": 22.7},
      {"smiles": "C[C@@H](Nc1nc(-c2noc(=O)[nH]2)nc2nc(C(C)(O)c3nccs3)n(C[C@H]3CC[C@H](C)CC3)c12)C1CCC1", "note": "(stereo partly drawn) [Example 22.56, 3-(6-{[(1R)-1-cyclobutylethyl]amino}-8-[1-hydroxy-1-(1,3-thiazol-2-yl)ethyl]-7-[(trans-4-methylcyclohexyl)methyl] -7H-purin-2-yl)-1,2,4-oxadiazol-5(4H)-one]", "IC50": 2.45},
      {"smiles": "C[C@@H](Nc1nc(-c2noc(=O)[nH]2)nc2nc(C(O)C3CCC3)n(C[C@H]3CC[C@H](C)CC3)c12)C1CCC1", "note": "(stereo partly drawn) [Example 22.57, 3-(6-{[(1R)-1-cyclobutylethyl]amino}-8-[cyclobutyl(hydroxy)methyl]-7-[(trans-4-methylcyclohexyl)methyl] -7H-purin-2-yl)-1,2,4-oxadiazol-5(4H)-one]", "IC50": 9.75},
      {"smiles": "C[C@@H](Nc1nc(-c2noc(=O)[nH]2)nc2nc(C(C)(O)c3nccs3)n(C[C@H]3CC[C@H](C)CC3)c12)C1CCC1", "note": "(stereo partly drawn) [Example 22.58, 3-(6-{[(1R)-1-cyclobutylethyl]amino}-8-[1-hydroxy-1-(1,3-thiazol-2-yl)ethyl]-7-[(trans-4-methylcyclohexyl)methyl] -7H-purin-2-yl)-1,2,4-oxadiazol-5(4H)-one]", "IC50": 7.21},
      {"smiles": "C[C@@H](Nc1nc(-c2noc(=O)[nH]2)nc2nc(C3(c4nccs4)CC3)n(C[C@H]3CC[C@H](C)CC3)c12)C1CCC1", "note": "[Example 22.59, 3-(6-{[(1R)-1-cyclobutylethyl]amino}-7-[(trans-4-methylcyclohexyl)methyl] -8-[1-(1,3-thiazol-2-yl)cyclopropyl]-7H-purin-2-yl)-1,2,4-oxadiazol-5(4H)-one]", "IC50": 2.3},
      {"smiles": "C[C@@H](Nc1nc(-c2noc(=O)[nH]2)nc2nc(C3(c4cnn(C)c4)CC3)n(C[C@H]3CC[C@H](C)CC3)c12)C1CCC1", "note": "[Example 22.63, 3-(6-{[(1R)-1-cyclobutylethyl]amino}-7-[(trans-4-methylcyclohexyl)methyl] -8-[1-(1-methyl-1H-pyrazol-4-yl)cyclopropyl]-7H-purin-2-yl)-1,2,4-oxadiazol-5(2H)-one]", "IC50": 7.93},
      {"smiles": "C[C@@H](Nc1nc(-c2noc(=O)[nH]2)nc2nc(C3(O)CCOCC3)n(C[C@H]3CC[C@H](C)CC3)c12)C1CCC1", "note": "[Example 22.64, 3-(6-{[(1R)-1-cyclobutylethyl]amino}-8-(4-hydroxytetrahydro-2H-pyran-4-yl)-7-[(trans-4-methylcyclohexyl)methyl] -7H-purin-2-yl)-1,2,4-oxadiazol-5(4H)-one]", "IC50": 49},
      {"smiles": "C[C@@H](Nc1nc(-c2noc(=O)[nH]2)nc2nc(C(F)c3ccccc3)n(C[C@H]3CC[C@H](C)CC3)c12)C1CCC1", "note": "(stereo partly drawn) [Example 22.66, 3-(6-{[(1R)-1-cyclobutylethyl]amino}-8-[fluoro(phenyl)methyl]-7-[(trans-4-methylcyclohexyl)methyl] -7H-purin-2-yl)-1,2,4-oxadiazol-5(4H)-one]", "IC50": 7.12},
      {"smiles": "C[C@@H](Nc1nc(-c2noc(=O)[nH]2)nc2nc(C3(O)CCC3)n(C[C@H]3CC[C@H](C)CC3)c12)C1CCC1", "note": "[Example 22.67, 3-(6-{[(1R)-1-cyclobutylethyl]amino}-8-(1-hydroxycyclobutyl)-7-[(trans-4-methylcyclohexyl)methyl] -7H-purin-2-yl)-1,2,4-oxadiazol-5(2H)-one]", "IC50": 19.3},
      {"smiles": "C[C@@H](Nc1nc(-c2noc(=O)[nH]2)nc2nc(C3(F)CCC3)n(C[C@H]3CC[C@H](C)CC3)c12)C1CCC1", "note": "[Example 22.68, 3-(6-{[(1R)-1-cyclobutylethyl]amino}-8-(1-fluorocyclobutyl)-7-[(trans-4-methylcyclohexyl)methyl] -7H-purin-2-yl)-1,2,4-oxadiazol-5(4H)-one]", "IC50": 16.9},
      {"smiles": "COC1(c2nc3nc(-c4noc(=O)[nH]4)nc(N[C@H](C)C4CCC4)c3n2C[C@H]2CC[C@H](C)CC2)CCC1", "note": "[Example 22.69, 3-(6-{[(1R)-1-cyclobutylethyl]amino}-8-(1-methoxycyclobutyl)-7-[(trans-4-methylcyclohexyl)methyl] -7H-purin-2-yl)-1,2,4-oxadiazol-5(4H)-one]", "IC50": 4.54},
      {"smiles": "C[C@@H](Nc1nc(-c2noc(=O)[nH]2)nc2nc(C3CCC3)n(C[C@H]3CC[C@H](C)CC3)c12)C1CCC1", "note": "[Example 22.70, 3-(8-cyclobutyl-6-{[(1R)-1-cyclobutylethyl]amino}-7-[(trans-4-methylcyclohexyl)methyl]-7H-purin-2-yl)-1,2,4-oxadiazol-5(4H)-one]", "IC50": 15.1},
      {"smiles": "CC(c1ccccn1)c1nc2nc(-c3noc(=O)[nH]3)nc(N[C@H](C)C3CCC3)c2n1C[C@H]1CC[C@H](C)CC1", "note": "(stereo partly drawn) [Example 22.71, 3-[6-{[(1R)-1-cyclobutylethyl]amino}-7-[(trans-4-methylcyclohexyl)methyl] -8-(1-pyridin-2-ylethyl)-7H-purin-2-yl]-1,2,4-oxadiazol-5(4H)-one]", "IC50": 6.49},
      {"smiles": "Cc1nc(C2(c3nc4nc(-c5noc(=O)[nH]5)nc(N[C@H](C)C5CCC5)c4n3C[C@H]3CC[C@H](C)CC3)CC2)c(C)s1", "note": "[Example 22.72, 3-(6-{[(1R)-1-cyclobutylethyl]amino}-8-[1-(2,5-dimethyl-1,3-thiazol-4-yl)cyclopropyl]-7-[(trans-4-methylcyclohexyl)methyl] -7H-purin-2-yl)-1,2,4-oxadiazol-5(4H)-one]", "IC50": 3.04},
      {"smiles": "COC(c1cscn1)c1nc2nc(-c3noc(=O)[nH]3)nc(N[C@H](C)C3CCC3)c2n1C[C@H]1CC[C@H](C)CC1", "note": "(stereo partly drawn) [Example 22.74, 3-(6-{[(1R)-1-cyclobutylethyl]amino}-8-[methoxy(1,3-thiazol-4-yl)methyl]-7-[(trans-4-methylcyclohexyl)methyl] -7H-purin-2-yl)-1,2,4-oxadiazol-5(4H)-one]", "IC50": 2.63},
      {"smiles": "CCOC1(c2nc3nc(-c4noc(=O)[nH]4)nc(N[C@H](C)C4CCC4)c3n2C[C@H]2CC[C@H](C)CC2)CCC1", "note": "[Example 22.76, 3-(6-{[(1R)-1-cyclobutylethyl]amino}-8-(1-ethoxycyclobutyl)-7-[(trans-4-methylcyclohexyl)methyl] -7H-purin-2-yl)-1,2,4-oxadiazol-5(4H)-one]", "IC50": 4.22},
      {"smiles": "C[C@@H](Nc1nc(-c2noc(=O)[nH]2)nc2nc(C(F)(F)c3ccccc3)n(C[C@H]3CC[C@H](C)CC3)c12)C1CCC1", "note": "[Example 22.79, 3-(6-{[(1R)-1-cyclobutylethyl]amino}-8-[difluoro(phenyl)methyl]-7-[(trans-4-methylcyclohexyl)methyl]-7H-purin-2-yl)-1,2,4-oxadiazol-5(4H)-one]", "IC50": 3.36}
    ]}
  ]
}
